Source: BindingDB's records for doi:10.1038/nchembio.2087 (University of Oxford, 2016)

Assays:
Test in all cases: Demethylase AlphaScreen Assay
Conditions in all cases: pH 7.5
[1] = molecular target: T1, Lysine-specific demethylase 5D [1-775] (Homo sapiens, UniProt Q9BY66)
T1 construct: 1-775
Procedure: (§1) The demethylase AlphaScreen assay was performed in 384-well plate format using white proxiplates (PerkinElmer), and transfer of compound (100 nl) was performed using an ECHO 550 acoustic dispenser (Labcyte). […] All subsequent steps were carried out in assay buffer (50 mM HEPES, pH 7.5, 0.1% (wt/vol) BSA and 0.01% (vol/vol) Tween-20). In brief, 5 μl of assay buffer containing demethylase enzyme at 2× final assay concentration (see Supplementary Table 3c for assay specifics) was preincubated for 15 min with dilutions of compound.

[2] = molecular target: Lysine-specific demethylase 5B (Homo sapiens, UniProt Q9UGL1)
Procedure: as §1

[3] = molecular target: T2, Lysine-specific demethylase 5A [1-801] (Homo sapiens, UniProt P29375)
T2 construct: 1-801
T2 sequence (P29375 whole entry): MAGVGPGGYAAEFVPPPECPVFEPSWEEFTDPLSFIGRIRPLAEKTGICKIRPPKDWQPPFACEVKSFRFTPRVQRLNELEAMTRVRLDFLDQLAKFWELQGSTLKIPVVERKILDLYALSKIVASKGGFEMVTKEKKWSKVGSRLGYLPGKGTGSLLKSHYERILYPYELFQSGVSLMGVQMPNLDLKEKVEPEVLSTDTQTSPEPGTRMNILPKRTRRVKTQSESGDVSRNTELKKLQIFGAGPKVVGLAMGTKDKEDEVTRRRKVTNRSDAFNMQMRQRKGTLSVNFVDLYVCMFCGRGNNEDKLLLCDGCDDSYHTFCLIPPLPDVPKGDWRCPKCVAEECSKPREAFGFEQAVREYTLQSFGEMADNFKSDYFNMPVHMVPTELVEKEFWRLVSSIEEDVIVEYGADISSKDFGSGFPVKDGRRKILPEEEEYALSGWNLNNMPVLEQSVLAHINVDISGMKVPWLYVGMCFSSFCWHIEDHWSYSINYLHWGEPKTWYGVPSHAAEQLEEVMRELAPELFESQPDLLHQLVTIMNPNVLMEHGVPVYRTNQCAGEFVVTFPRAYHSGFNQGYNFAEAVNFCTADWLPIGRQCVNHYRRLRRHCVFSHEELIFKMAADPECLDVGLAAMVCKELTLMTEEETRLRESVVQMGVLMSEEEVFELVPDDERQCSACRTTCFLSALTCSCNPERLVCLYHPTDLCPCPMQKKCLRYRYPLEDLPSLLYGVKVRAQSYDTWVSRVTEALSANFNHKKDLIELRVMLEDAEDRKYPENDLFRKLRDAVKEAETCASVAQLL
Procedure: as §1

[4] = molecular target: T3, Lysine-specific demethylase 4C (Homo sapiens, UniProt Q9H3R0)
T3 sequence (Q9H3R0 whole entry): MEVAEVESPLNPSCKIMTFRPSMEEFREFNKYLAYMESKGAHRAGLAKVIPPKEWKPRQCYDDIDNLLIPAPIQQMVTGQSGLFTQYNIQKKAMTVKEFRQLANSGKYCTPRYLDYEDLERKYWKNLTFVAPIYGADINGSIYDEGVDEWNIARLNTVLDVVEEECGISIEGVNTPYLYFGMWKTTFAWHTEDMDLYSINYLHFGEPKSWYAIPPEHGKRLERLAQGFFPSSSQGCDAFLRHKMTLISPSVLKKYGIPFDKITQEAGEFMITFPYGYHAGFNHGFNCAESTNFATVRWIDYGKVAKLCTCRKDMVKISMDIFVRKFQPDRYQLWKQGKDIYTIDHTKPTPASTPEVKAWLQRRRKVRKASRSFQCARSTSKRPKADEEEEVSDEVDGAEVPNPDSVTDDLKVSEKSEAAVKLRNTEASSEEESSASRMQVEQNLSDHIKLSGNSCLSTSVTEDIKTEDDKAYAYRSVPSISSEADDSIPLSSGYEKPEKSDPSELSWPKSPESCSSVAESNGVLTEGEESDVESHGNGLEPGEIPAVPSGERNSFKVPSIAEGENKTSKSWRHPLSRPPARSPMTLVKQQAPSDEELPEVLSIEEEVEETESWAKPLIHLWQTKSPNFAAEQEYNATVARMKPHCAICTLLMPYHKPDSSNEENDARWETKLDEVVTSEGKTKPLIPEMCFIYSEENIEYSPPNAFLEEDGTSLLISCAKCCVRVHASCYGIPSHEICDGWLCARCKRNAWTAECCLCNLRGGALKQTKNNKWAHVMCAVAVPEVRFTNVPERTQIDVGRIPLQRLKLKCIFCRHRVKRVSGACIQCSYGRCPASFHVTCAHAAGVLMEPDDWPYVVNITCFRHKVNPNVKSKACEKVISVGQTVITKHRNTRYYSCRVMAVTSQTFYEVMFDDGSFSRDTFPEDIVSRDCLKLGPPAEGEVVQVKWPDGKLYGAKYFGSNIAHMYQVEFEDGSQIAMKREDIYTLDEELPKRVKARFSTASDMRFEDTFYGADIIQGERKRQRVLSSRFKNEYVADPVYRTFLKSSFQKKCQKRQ
Procedure: as §1

[5] = molecular target: T4, Lysine-specific demethylase 3A (Homo sapiens, UniProt Q9Y4C1)
T4 sequence (Q9Y4C1 whole entry): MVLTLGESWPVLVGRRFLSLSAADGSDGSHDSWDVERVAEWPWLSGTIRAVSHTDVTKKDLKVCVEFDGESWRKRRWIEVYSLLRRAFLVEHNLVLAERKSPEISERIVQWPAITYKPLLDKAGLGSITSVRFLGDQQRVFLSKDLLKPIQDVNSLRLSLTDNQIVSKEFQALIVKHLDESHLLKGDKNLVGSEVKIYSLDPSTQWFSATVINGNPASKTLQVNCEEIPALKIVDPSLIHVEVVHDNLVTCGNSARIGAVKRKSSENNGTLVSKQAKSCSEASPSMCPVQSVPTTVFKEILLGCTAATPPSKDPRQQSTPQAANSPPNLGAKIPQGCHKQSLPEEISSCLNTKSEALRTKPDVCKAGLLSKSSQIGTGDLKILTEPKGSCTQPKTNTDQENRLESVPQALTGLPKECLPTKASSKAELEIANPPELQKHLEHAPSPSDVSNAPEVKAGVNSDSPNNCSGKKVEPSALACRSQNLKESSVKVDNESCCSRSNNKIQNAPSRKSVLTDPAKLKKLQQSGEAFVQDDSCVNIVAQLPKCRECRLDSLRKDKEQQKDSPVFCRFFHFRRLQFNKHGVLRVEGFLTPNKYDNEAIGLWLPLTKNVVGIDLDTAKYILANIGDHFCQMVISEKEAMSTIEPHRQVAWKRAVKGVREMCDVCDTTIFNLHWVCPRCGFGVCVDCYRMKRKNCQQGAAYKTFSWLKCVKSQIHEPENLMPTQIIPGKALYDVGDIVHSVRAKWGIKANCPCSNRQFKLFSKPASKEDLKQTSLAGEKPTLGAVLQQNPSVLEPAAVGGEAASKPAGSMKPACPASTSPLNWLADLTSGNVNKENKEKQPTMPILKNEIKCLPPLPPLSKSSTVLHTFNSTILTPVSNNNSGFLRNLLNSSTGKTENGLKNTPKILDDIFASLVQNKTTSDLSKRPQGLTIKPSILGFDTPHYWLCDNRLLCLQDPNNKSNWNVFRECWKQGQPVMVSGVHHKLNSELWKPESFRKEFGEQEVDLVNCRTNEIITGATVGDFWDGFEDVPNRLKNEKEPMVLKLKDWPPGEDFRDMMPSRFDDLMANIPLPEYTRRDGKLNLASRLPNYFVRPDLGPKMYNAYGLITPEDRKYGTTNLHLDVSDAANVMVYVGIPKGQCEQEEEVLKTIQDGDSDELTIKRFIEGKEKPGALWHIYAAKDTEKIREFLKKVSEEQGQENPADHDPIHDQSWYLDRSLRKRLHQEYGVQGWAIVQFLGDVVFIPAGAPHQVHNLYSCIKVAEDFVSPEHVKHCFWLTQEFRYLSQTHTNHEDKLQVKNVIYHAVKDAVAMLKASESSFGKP
Procedure: as §1

[6] = molecular target: T5, Lysine-specific demethylase 5C [1-765] (Homo sapiens, UniProt P41229)
T5 construct: 1-765
T5 sequence (P41229 whole entry): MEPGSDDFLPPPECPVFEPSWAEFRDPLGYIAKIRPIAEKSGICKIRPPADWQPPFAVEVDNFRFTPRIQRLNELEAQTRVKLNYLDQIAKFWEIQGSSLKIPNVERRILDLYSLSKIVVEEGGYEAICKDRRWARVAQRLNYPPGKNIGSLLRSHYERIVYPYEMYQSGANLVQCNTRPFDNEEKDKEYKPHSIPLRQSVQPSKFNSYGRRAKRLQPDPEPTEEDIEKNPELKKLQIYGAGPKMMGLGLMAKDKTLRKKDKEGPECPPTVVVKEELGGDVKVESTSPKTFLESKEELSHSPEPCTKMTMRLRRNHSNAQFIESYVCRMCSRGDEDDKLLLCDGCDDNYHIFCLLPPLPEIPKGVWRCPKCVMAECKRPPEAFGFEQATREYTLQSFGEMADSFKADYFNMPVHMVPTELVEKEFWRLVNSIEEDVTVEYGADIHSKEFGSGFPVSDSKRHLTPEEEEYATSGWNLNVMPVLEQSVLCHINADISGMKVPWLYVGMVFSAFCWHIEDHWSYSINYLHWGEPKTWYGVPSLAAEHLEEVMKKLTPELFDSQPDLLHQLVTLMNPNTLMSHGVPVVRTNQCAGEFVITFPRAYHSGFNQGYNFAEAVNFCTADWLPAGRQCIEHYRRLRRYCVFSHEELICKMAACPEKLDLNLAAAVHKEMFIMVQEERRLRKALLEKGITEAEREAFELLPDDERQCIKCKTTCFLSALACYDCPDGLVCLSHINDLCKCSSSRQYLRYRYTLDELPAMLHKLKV
Procedure: as §1

[7] = molecular target: T6, Lysine-specific demethylase 2A (Homo sapiens, UniProt Q9Y2K7)
T6 sequence (Q9Y2K7 whole entry): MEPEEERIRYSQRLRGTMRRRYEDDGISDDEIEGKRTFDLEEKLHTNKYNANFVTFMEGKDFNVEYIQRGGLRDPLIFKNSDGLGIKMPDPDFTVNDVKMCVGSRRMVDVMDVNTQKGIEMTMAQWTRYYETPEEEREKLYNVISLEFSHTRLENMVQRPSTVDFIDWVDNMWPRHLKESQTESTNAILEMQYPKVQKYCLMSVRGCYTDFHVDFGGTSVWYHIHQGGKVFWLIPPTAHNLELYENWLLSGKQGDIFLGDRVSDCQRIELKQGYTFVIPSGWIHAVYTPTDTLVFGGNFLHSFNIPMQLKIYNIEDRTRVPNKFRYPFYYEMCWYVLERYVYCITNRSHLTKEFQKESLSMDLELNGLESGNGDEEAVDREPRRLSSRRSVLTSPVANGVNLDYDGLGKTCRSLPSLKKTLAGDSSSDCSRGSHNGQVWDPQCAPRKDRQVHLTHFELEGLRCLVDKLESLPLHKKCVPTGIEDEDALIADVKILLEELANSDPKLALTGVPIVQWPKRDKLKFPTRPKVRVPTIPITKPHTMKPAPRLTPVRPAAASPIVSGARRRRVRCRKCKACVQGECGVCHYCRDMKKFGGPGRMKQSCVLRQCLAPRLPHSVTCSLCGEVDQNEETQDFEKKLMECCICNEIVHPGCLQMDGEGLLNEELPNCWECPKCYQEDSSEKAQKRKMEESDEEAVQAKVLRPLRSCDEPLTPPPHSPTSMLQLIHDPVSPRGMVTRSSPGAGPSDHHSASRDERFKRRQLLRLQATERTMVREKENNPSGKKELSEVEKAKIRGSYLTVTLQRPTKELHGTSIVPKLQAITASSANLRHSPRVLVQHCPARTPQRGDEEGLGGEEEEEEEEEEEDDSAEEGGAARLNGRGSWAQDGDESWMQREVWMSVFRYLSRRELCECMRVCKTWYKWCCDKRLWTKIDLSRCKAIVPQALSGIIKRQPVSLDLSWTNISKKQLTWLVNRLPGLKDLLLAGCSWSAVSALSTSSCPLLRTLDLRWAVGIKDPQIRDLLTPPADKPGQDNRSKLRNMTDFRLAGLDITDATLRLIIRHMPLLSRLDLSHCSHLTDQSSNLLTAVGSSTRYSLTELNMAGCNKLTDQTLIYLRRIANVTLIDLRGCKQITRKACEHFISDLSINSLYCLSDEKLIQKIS
Procedure: as §1

[8] = molecular target: Lysine-specific demethylase 6B (Homo sapiens, UniProt O15054)
Procedure: as §1

T1 sequence (Q9BY66 1-775): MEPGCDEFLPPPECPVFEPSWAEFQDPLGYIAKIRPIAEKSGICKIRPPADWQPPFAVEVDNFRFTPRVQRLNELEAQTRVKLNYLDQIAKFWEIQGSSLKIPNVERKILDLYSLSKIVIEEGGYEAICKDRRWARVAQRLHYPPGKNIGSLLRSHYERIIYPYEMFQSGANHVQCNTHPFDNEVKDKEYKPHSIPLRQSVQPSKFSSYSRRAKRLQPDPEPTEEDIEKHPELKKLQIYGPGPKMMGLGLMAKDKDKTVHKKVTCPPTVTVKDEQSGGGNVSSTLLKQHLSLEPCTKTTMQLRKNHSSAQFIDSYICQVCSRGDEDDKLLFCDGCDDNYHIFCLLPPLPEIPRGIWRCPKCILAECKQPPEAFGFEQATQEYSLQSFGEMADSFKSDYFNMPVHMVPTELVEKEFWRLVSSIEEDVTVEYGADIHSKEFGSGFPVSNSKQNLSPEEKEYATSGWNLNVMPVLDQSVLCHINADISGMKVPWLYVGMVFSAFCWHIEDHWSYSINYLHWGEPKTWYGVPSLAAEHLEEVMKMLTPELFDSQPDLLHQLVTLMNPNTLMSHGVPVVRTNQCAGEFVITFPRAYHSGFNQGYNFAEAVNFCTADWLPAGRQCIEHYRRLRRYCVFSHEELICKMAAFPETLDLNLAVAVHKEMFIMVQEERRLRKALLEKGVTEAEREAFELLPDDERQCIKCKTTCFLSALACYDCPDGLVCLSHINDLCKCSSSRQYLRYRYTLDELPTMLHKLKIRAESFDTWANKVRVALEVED
Sequence of Lysine-specific demethylase 5B (Q9UGL1 whole entry): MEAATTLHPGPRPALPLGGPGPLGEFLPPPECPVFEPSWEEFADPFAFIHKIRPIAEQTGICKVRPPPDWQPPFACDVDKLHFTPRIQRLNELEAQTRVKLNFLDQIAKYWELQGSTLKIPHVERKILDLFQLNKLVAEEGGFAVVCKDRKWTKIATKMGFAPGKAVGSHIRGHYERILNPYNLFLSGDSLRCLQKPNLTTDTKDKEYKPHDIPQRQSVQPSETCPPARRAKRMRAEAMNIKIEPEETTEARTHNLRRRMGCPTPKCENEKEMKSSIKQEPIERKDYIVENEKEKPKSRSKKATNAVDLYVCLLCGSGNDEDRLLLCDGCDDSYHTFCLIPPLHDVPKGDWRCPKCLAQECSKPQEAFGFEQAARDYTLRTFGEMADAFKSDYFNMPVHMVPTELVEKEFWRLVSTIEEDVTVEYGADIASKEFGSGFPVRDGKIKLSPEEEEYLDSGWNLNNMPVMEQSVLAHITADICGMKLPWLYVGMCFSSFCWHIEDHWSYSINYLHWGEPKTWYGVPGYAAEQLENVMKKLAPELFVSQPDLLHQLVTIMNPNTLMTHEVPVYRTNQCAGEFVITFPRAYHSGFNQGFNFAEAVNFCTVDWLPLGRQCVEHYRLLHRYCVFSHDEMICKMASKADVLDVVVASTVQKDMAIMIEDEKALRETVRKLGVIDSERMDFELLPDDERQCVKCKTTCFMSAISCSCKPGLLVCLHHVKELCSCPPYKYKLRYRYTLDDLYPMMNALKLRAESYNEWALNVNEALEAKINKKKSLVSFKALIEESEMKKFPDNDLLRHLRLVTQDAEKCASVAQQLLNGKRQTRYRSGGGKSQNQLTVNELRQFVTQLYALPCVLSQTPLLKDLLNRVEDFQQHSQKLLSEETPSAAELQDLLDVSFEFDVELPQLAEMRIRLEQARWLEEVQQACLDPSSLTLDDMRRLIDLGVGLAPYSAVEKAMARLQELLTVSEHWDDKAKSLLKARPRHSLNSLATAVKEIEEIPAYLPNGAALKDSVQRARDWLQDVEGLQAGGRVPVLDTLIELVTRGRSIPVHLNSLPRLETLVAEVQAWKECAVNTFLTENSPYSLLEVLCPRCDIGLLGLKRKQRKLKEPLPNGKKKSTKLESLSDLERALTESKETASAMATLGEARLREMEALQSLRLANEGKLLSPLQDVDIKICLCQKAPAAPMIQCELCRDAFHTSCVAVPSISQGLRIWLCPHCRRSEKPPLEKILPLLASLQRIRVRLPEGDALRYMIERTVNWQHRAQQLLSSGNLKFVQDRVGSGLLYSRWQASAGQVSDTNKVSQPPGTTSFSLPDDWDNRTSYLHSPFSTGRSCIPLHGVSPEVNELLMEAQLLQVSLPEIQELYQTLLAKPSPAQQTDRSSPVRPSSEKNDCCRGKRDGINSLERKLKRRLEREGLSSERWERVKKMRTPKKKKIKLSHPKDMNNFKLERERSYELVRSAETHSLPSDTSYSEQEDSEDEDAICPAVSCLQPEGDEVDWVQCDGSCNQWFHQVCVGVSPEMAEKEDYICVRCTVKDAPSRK
Sequence of Lysine-specific demethylase 6B (O15054 whole entry): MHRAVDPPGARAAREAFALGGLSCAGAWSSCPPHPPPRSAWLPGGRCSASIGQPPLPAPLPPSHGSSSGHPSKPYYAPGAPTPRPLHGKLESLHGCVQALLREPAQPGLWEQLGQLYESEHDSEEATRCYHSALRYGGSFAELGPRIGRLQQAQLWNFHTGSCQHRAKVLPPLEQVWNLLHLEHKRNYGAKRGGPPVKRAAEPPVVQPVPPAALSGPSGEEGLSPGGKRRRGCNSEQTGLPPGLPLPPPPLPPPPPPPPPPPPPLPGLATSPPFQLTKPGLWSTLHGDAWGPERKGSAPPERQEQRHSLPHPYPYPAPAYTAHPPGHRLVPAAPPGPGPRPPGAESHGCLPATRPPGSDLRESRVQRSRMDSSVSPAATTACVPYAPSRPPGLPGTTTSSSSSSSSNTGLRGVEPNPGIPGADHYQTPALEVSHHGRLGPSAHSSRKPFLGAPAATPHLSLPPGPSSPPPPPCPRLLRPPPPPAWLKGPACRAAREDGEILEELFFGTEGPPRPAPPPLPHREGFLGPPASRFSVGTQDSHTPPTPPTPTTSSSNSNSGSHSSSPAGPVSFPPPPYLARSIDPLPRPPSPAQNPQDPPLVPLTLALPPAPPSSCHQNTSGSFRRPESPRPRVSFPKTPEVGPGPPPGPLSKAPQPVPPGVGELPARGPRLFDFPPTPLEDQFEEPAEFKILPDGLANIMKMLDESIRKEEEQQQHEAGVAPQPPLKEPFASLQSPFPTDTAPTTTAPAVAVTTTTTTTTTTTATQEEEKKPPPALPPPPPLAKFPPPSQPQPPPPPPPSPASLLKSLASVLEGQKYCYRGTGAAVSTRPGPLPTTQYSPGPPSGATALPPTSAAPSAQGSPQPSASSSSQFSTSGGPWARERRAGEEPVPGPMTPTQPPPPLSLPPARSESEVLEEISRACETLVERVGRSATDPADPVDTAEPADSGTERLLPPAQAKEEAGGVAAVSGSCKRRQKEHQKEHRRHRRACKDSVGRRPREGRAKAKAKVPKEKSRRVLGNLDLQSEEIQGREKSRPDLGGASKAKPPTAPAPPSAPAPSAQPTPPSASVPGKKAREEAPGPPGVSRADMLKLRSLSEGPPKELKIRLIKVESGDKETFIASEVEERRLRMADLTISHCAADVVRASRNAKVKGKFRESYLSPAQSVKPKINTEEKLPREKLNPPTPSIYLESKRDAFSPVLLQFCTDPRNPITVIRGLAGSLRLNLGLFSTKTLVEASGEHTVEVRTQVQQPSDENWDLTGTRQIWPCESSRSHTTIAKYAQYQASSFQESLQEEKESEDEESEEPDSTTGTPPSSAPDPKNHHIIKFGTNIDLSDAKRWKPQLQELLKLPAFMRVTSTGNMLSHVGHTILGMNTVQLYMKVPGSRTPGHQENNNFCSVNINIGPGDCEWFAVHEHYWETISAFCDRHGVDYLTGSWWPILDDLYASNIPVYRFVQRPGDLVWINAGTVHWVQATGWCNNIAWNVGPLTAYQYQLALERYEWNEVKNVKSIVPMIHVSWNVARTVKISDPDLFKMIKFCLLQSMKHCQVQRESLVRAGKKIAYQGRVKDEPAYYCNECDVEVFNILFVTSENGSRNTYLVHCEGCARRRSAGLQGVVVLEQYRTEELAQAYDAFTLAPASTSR

Structure (SMILES)	IC50 [1]	IC50 [2]	IC50 [3]	IC50 [4]	IC50 [5]	IC50 [6]	IC50 [7]	IC50 [8]
O=C(O)CNC(=O)C(=O)O	5800 nM	24500 nM	6900 nM	41500 nM	–	–	–	–
O=c1[nH]c(Oc2cnn(Cc3ccccc3)c2)nc2cnccc12 [GSK467]	77 nM	26 nM	24 nM	5100 nM	33900 nM	65 nM	–	–
O=C(O)CCNc1cc(N2CCc3ccccc3CC2)nc(-c2ccccn2)n1 [GSK-J1]	1500 nM	550 nM	3900 nM	64900 nM	–	1500 nM	–	–

Second part, the compound after the results:

IC50 [1]	IC50 [2]	IC50 [3]	IC50 [4]	IC50 [5]	IC50 [6]	IC50 [7]	IC50 [8]	Structure (SMILES)
15 nM	4 nM	7 nM	210 nM	780 nM	13 nM	2200 nM	1400 nM	CCN(CCN(C)C)C(=O)CNCc1cc(C(=O)O)ccn1 [KDOAM-20]
2500 nM	–	1300 nM	–	–	–	–	–	O=C(O)c1ccnc(C(=O)O)c1 [pyridine-2,4-dicarboxylic acid]
